According to patent US20160044914A1, “BIOCIDE COMPOSITIONS, METHODS OF MANUFACTURE, AND METHODS OF USE” (SEGETIS, INC., priority 2013, published 2016):
Entries after “also recorded” stand apart in the source; their conditions may differ.

Assays:
[1] = Approximate solubility of technical grade active ingredients in the adjuvant solvents (shaker, iterative approach); conditions: for solubility in the three solvents, in words: Solvents I, II and III taken together
Method: Solubility studies were conducted using three materials to determine their ability to dissolve various biocide active ingredients: Solvent I-formula 1(a); Solvent II-formula 1(b); and Solvent III-formula 3(a). Active ingredients were chosen from three classes of biocides and primarily reflected difficult to dissolve actives. The following biocides were evaluated.
The approximate solubility of each technical grade active ingredient was determined in each of the solvents.
All examples were conducted on a 100 gram or 50 gram scale. The Dimethoate, 2,4-D, mesotrione and halosulfuron examples were conducted at 50 gram scale. All other examples were conducted on a 100 gram scale.
An amount of solvent was weighed into a 4 ounce jar (or 2 oz). An amount of active ingredient was weighed and added to the solvent in the jar. The jar was capped tightly and placed on a New Brunswick Scientific model C1 platform shaker. The samples were shaken at the 75% setting for 1 hour. During the mixing and after 1 hour each sample was examined and completeness of solubility noted. Using an iterative approach, an approximate solubility for each active ingredient in each of the solvents was determined. Each sample was allowed to sit undisturbed for 1 hour after mixing to determine if any crystallization would occur in those samples which dissolved.

[2] = cited from earlier work
[3] = Solvent I (formula 1(a)), % solids by weight, shaken 1 hour, minimum concentration tested 2.5%
[4] = Solvent II (formula 1(b)), % solids by weight, shaken 1 hour, minimum concentration tested 2.5%
[5] = Solvent III (formula 3(a)), % solids by weight, shaken 1 hour, minimum concentration tested 2.5%

Structure (SMILES) | approximate solubility range in Solvent I [1, 3] [%] | approximate solubility range in Solvent II [1, 4] [%] | solubility in the three solvents, in words [1] | approximate solubility range in Solvent I ([1]; 1 h) | approximate solubility range in Solvent II ([1]; 1 h) | approximate solubility range in Solvent III ([1]; 1 h) | also measured
CC1(C)[C@H](C(=O)O[C@H](C#N)c2cccc(Oc3ccccc3)c2)[C@@H]1/C=C(\Cl)C(F)(F)F [Gamma cyhalothrin] | >80 | >80 | greatest solubility |  |  |  | approximate solubility range in Solvent III [1, 5]: >80%
CS(=O)(=O)NC(=O)c1cc(Oc2ccc(C(F)(F)F)cc2Cl)ccc1[N+](=O)[O-] [Fomesafen] |  |  |  | <2.5% | >2.5%; <10% | >5%; <10% | 
O=C(O)COc1ccc(Cl)cc1Cl [2,4-D] |  |  | did dissolve |  |  |  | 
OC(Cn1cncn1)(c1ccc(F)cc1)c1ccccc1F (stereo not drawn) [Flutrifol] |  |  |  | >2.5%; <5% | >2.5%; <5% | >5%; <20% | 
COCC(=O)N(c1c(C)cccc1C)C(C)C(=O)OC (stereo not drawn) [Metalaxyl] |  |  | greatest solubility |  |  |  | 
COc1cc(OC)nc(NC(=O)NS(=O)(=O)c2c(C(=O)O)c(Cl)nn2C)n1 [Halosulfuron] |  |  |  | <2.5% | <2.5% | >2.5%; <5% | 
CS(=O)(=O)c1ccc(C(=O)C2C(=O)CCCC2=O)c([N+](=O)[O-])c1 [Mesotrione] | <2.5 | <2.5 |  |  |  |  | solubility in Solvent III, in words ([1]; Solvent III): soluble; solubility in acetonitrile and acetone ([2]; acetonitrile and acetone): limited solubility
O=C(O)CNCP(=O)(O)O [Glyphosate] | <2.5 | <2.5 | not very soluble |  |  |  | approximate solubility range in Solvent III [1, 5]: <2.5%; solubility in most solvents, including water ([2]; most solvents, including water): not soluble to any great extent
CCOC(=O)CCC(C)=O [Solvent III] |  |  |  |  |  |  | solvating properties compared among the three solvents ([1]; in all but one active ingredient, for those active ingredients which were soluble): best solvating properties
COc1c(Cl)ccc(Cl)c1C(=O)O [Dicamba] | <10 |  | greatest solubility; also recorded: did dissolve |  |  |  | 
